Results: patent US20050241012A1, “Multigene profiling in the kidney to tailor drug therapy” (priority 2003, published 2005)
Entries after “also recorded” stand apart in the source; their conditions may differ. Structures can show the parent of a compound that is named as a salt. Each block holds one compound with its values, some of them ahead of it.

What was measured:
renal slices = assay: Renal tissue slice uptake assay, wild-type and Oat3−/− mice; details: for inhibition of taurocholate, estrone sulfate and para-aminohippurate uptake in wild-type renal slices / ES transport in Oat3−/− renal slices in the presence of inhibitor: 1 mM inhibitor; for ES transport in Oat3−/− renal slices in the presence of inhibitor / renal slice uptake in Oat3−/− mice compared with wild-type: 100 nM estrone sulfate; for renal slice uptake in Oat3−/− mice compared with wild-type: 1 h, taurocholate or para-aminohippurate
Experimental: (§1) Data were calculated as tissue to medium T/M ratios and are presented as mean values ±S. E. (3 slices, treatment).
(§2) Renal and hepatic tissue slice preparation and uptake assays were performed according to standard protocols. Four- to 6-month-old mice were euthanized by CO2 inhalation, and the liver and kidneys were immediately placed into freshly oxygenated ice-cold saline. Tissue slices (˜0.5 mm; ˜5-10 mg, wet weight) were cut with a Stadie-Riggs microtome and maintained in ice-cold modified Cross and Taggart saline (in mM: 95 NaCl, 80 mannitol, 5 KCl, 0.74 CaCl2, and 9.5 Na2PO4, pH 7.4). […] Conditions for the PAH experiments were optimized for Oat1 by the addition of 10 μM glutarate to the uptake buffer. After incubation the slices were removed from the uptake medium, blotted, weighed, dissolved in 1 ml of 1M NaOH, neutralized with 1 ml of 1M HCl, and assayed by liquid scintillation spectroscopy. Duplicate medium samples (50 μl) were also assayed, and data are presented as tissue to medium (T/M) ratios (i.e. dpm/mg of tissue divided by dpm/μl of medium).
Statistics. The renal slice data were compared using unpaired Student's t-test. Differences in mean values between the control and inhibited conditions were considered significant when p≦0.05.

choroid plexus = assay: Accumulation in isolated choroid plexus, confocal fluorescence microscopy, wild-type and Oat3−/− mice; details: for reduction of cellular accumulation (cellular fluorescence) in CP from Oat3−/− mice: both, mouse, 45 min, 1 μM, pH 7.4
Source text: The CP is composed of capillary projections surrounded by a single layer of cells that protrude into the cerebrospinal fluid-filled ventricles of the brain. The orientation is such that the CSF bathes the apical membrane of the cell and the basal membrane is toward the underlying fenestrated capillary. (A and C) Transmitted light images of wild-type and Oat3^−/− CP, respectively, showing the tissue structure. (B and D) Corresponding fluorescence micrographs of the CP shown in (A) and (C). Confocal images were acquired 45 min after exposure to 1 μM FL in the aCSF medium. […] The positions of representative cells and capillaries (CUD) are indicated by arrows. A 20-μm bar is shown.
Fluorescence levels in cells and vessels of CP from 4 wild-type and 4 Out3^−/− mice were measured (n=5-10 adjacent cellular and capillary areas/CP). […] Data are given as mean ±S.E. for each animal.
Choroid plexus isolation. Adult male and female wild-type and Oat3^−/− mice were euthanized with CO2.
Confocal Fluorescence Microscopy. CP were imaged as using an inverted Zeiss model 510 laser scanning confocal microscope fitted with a 40μ water immersion objective (numeric aperture, 1.2). Samples were illuminated with the 488-nm line of an argon laser; a 510-nm dichroic filter was in the light path, and a long pass emission filter (515 nm) was positioned in front of the detector. […] For each CP, 5-10 adjacent cellular and capillary areas were selected. After background subtraction, the average pixel intensity for each area was calculated and the values reported graphically for each CP are the means ±S.E. for all selected areas (n˜5-10). Values reported in the text are mean ±S.E. of the individual mean values for each CP as determined above (n˜4-6 animals/group).

mouse Oat3 = biological target: T1, mouse Oat3 (Mus musculus, UniProt O88909); details: 90 nM [3H]estrone sulfate
T1 sequence (O88909 1-537): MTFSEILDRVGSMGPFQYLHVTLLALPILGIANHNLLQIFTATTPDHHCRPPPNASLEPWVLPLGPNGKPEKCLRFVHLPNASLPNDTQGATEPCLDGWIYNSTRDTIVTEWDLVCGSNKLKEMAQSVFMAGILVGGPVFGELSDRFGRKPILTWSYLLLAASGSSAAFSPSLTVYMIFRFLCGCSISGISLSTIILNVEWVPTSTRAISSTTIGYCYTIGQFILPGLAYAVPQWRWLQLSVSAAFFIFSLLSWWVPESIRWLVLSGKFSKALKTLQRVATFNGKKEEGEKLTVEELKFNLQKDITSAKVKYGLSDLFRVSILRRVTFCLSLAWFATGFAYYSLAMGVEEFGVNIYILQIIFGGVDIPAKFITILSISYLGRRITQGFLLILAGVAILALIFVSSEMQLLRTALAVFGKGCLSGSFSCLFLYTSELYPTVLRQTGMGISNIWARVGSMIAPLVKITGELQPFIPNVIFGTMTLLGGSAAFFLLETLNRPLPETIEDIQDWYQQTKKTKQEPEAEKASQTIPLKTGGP
Experimental: FIG. 13 oocytes three days after injection with either mouse Oat1 or mouse Oat3 cRNA. Oocytes were randomly sorted into test groups and 1 h uptake determined.
Transport Assays-Xenopus oocyte isolation procedures and uptake assay. Ovaries were removed from tricaine methanesulfonate anesthetized adult female Xenopus laevis and follicle-free stage V and stage VI oocytes were isolated by treatment with collagenase A. After an overnight recovery period in Barth's buffer at 18° C., oocytes were microinjected with 20 ng of capped cRNA synthesized from linearized cDNA (mMessage mMachine in vitro transcription kit, Ambion, Inc., Austin, Tex.). […] Oocyte radioactivity was measured in disintegrations/min (dpm) in a Packard 1600TR liquid scintillation counter with external quench correction.

hepatic slices = assay: Hepatic tissue slice uptake assay, wild-type and Oat3−/− mice; details: 1 h
Experimental: as §1, §2

inhibition of Oat3-mediated ES transport in oocytes (mouse Oat3; 1 mM probenecid): completely blocked
SMILES: CCCN(CCC)S(=O)(=O)c1ccc(C(=O)O)cc1 [probenecid]
inhibition of taurocholate, estrone sulfate and para-aminohippurate uptake in wild-type renal slices (renal slices): sensitive to inhibition
ES transport in Oat3−/− renal slices in the presence of inhibitor (renal slices): additional drop
inhibition of residual FL uptake in CP from Oat3 knockout animals (choroid plexus): probenecid-sensitive

SMILES: Nc1ccc(C(=O)NCC(=O)O)cc1 [PAH, para-aminohippurate]
renal slice uptake in Oat3−/− mice compared with wild-type (renal slices; 10 μM TEA): significant (p<0.001) decrease; also recorded: significantly reduced
hepatic slice uptake (hepatic slices): complete lack
mediated uptake in Oat3-expressing oocytes (mouse Oat3; 1 h uptake, 10 μM [3H]PAH, 500 nM [3H]taurocholate): observed

SMILES: CC[N+](CC)(CC)CC [TEA, tetraethylammonium]
renal slice uptake in Oat3−/− mice compared with wild-type (renal slices; 10 μM TEA): unaltered; also recorded: unaffected

SMILES: C=C[C@H]1C[N@@]2CC[C@H]1C[C@H]2[C@H](O)c1ccnc2ccc(OC)cc12 [Quinine sulfate, quinine sulfate]
inhibition of renal uptake of [14C]TEA (renal slices; 200 μM quinine sulfate, 10 μM TEA): sensitive

reduction of cellular accumulation (cellular fluorescence) in CP from Oat3−/− mice (choroid plexus; C57BL/6J): ~75%
reduction of cellular accumulation (cellular fluorescence) in CP from Oat3−/− mice (choroid plexus): about 75%
SMILES: O=C1OC2(c3ccc(O)cc3Oc3cc(O)ccc32)c2ccccc21 [FL, fluorescein]

SMILES: O=C1OC(c2ccc(O)c(S(=O)(=O)O)c2)(c2ccc(O)c(S(=O)(=O)O)c2)c2c(Br)c(Br)c(Br)c(Br)c21 [BSP, bromo-sulfophthalein]
inhibition of taurocholate, estrone sulfate and para-aminohippurate uptake in wild-type renal slices (renal slices): sensitive to inhibition
ES transport in Oat3−/− renal slices in the presence of inhibitor (renal slices): additional drop
